Results from paper PMC6784244 (Toxins, 2019).
In brackets after ≈: the same amount, converted by molar mass.

Tests used:
[1] = system: Fusarium graminearum (DSMZ 1095); settings: DSMZ 1095, pH 7
[2] = system: A. ochraceus (DSMZ 824); settings: DSMZ 824, pH 7
[3] = set-up: species or system B. subtilis; settings: lipid monolayer on PBS pH 7.4, peptide 1 µM, extrapolated to delta pressure 0; -- = absence of interaction
Method: (§1) Peptide–lipid interaction was evaluated using reconstituted lipid monolayer at the air–water interface as previously described. Pure prokaryotic and eukaryotic lipids used were: POPC (1-palmitoyl-2-oleoyl-glycero-3-phosphocholine), POPE (1-palmitoyl-2-oleoyl-sn-glycero-3-phosphoethanolamine), POPG (1-palmitoyl-2-oleoyl-sn-glycero-3-phospho-(1’-rac-glycerol), and cardiolipin, all from Avanti Polar Lipid (Alabama, USA). LTA (Lipoteichoic acid from B. subtilis) was obtained from Invivogen SAS (Toulouse, France). Pure lipids were reconstituted in chloroform:methanol (2:1, v:v) at 1 mg/mL and stored at −20 °C under nitrogen. The interaction and insertion of the ENN and BEA into lipids were evaluated through the measurement of their critical pressure of insertion as previously described. Briefly, lipids were spread using a 50 µL Hamilton’s syringe at the surface of 800 µL of sterile PBS creating a lipid monolayer at the air–water interface. Lipids were added until the surface pressure reached the desired value. After 5–10 min of incubation allowing evaporation of the solvent and stabilization of the initial surface pressure, 8 µL of ENN or BEA diluted in sterile PBS at 100 µM were injected into the 800 µL sub-phase of PBS under the lipid monolayer (pH 7.4, volume 800 µL) using a 10 µL Hamilton syringe giving a final concentration of peptides of 1 µM, preliminary experiments having shown that this concentration gave optimal insertion. The variation of the surface pressure caused by peptide injection was then continuously monitored using a fully automated microtensiometer (µTROUGH SX, Kibron Inc., Helsinki, Finland) until reaching equilibrium (maximal surface pressure increase being usually obtained after 15–25 min). The critical pressure of insertion of each peptide was determined by changing the initial pressure of lipid monolayer (from 10 and 30 mN/m) and measuring the variation of pressure caused by the insertion of the peptide. The critical pressure of insertion of each peptide in a particular lipid was determined graphically and calculated as the theoretical value of initial pressure of lipid monolayer not permissive to peptide insertion, i.e., causing a variation of pressure equal to 0 mN/m.

[4] = system: Stachybotrys chartarum (DSMZ 2144); settings: DSMZ 2144, pH 7
[5] = system: Penicillium verrucosum (DSMZ 12639); settings: DSMZ 12639, pH 7
[6] = system: HUVEC (human normal endothelial cells); format: cell-based; settings: 48 h exposure, 0-100 µM, resazurin fluorescence; means ± S.D, n = 3; read-out: IC50 on cell viability, HUVEC
Method: (§2) The impact of ENN or BEA on the viability of human cells were evaluated as previously described. Cells used were human normal lung epithelial cells BEAS-2B (ATCC CRL-9609), human intestinal cell line Caco-2 (ATCC HTB-37), human normal epidermal keratinocytes (HEK) (from Lonza), human liver cell line HEPG2 (ATCC HB-8065), human normal endothelial cells (Human Umbilical Vein Endothelial Cells, HUVEC) (from Sigma-Aldrich, Lyon, France), and human gastric cell line N87 (ATCC CRL-5822). BEAS-2B, Caco-2 and HEPG2 cells were cultured in DMEM supplemented with 10% fetal calf serum (FCS), 1% L-glutamine, and 1% antibiotics (all from Invitrogen (Carlsbad, CA, USA). N87 cells were cultured in RPMI media supplemented with 10% fetal calf serum (FCS), 1% L-glutamine, and 1% antibiotics (all from Invitrogen, Carlsbad, CA, USA). HEK and HUVEC cells were cultured in specific medium (from Lonza and Sigma Aldrich, respectively). Cells were routinely grown on 25 cm^2 flasks and maintained in a 5% CO2 incubator at 37 °C. For toxicity assay, human cells grown on 25 cm^2 flasks were detached using trypsin-EDTA solution (from Thermofisher), counted using Malassez counting chamber, diluted in appropriate culture media, and seeded into 96-well cell culture plates (Greiner bio-one, Paris, France) at approximately 10^4 cells per well. The cells were left to grow for 48–72 h at 37 °C in a 5% CO2 incubator until they reached confluence. Media from wells was then aspirated and cells were treated with 100 µL of appropriate culture media containing increasing concentrations of ENN or BEA (from 0 to 100 µM, 1:2 serial dilution). […] The plates were then incubated at 37 °C for 48 h. Resazurin-based in vitro toxicity assay kit (from Sigma-Aldrich, Lyon, France) was then used to assess the viability of the cells following manufacturer’s instructions. Briefly, resazurin stock solution was diluted 1:10 in sterile PBS containing calcium and magnesium (PBS^++, pH 7.4). Plates were aspirated and 100 µL of the diluted solution were added per wells. After 4 h incubation at 37 °C, fluorescence intensity was measured using microplate reader (Biotek, Synergy Mx, Colmar, France) with an excitation wavelength of 530 nm and an emission wavelength of 590 nm. The fluorescence values were normalized by the controls (untreated cells) and expressed as percentage of cell viability. The IC50 values of ENN or BEA (i.e., the concentrations causing a reduction of 50% of the cell viability) were calculated using GraphPad® Prism 7 software (San Diego, CA, USA). Experiments were conducted in triplicate (n = 3).

[7] = system: Caco-2 (human intestinal cell line); format: cell-based; settings: 48 h exposure, 0-100 µM, resazurin fluorescence; means ± S.D, n = 3; read-out: IC50 on cell viability, Caco-2
Method: as §2

[8] = system: HEPG2 (human liver cell line); format: cell-based; settings: 48 h exposure, 0-100 µM, resazurin fluorescence; means ± S.D, n = 3; read-out: IC50 on cell viability, HEPG2
Method: as §2

[9] = system: BEAS-2B (human normal lung epithelial cells); format: cell-based; settings: 48 h exposure, 0-100 µM, resazurin fluorescence; means ± S.D, n = 3; read-out: IC50 on cell viability, BEAS-2B
Method: as §2

[10] = system: HEK (human normal epidermal keratinocytes); settings: 48 h
[11] = system: Vancomycin-resistant Enterococcus faecalis (DSMZ 13591)
[12] = lipid monolayer on PBS pH 7.4, peptide 1 µM, extrapolated to delta pressure 0; -- = absence of interaction
Method: as §1

[13] = system: A. niger (ATCC 9142); settings: ATCC 9142, pH 7

| SMILES | MIC, F. graminearum [1] [µM] | MIC, A. ochraceus [2] [µM] | critical pressure of insertion, LTA [3] [mN/m] | MIC, S. chartarum [4] [µM] | MIC, P. verrucosum [5] [µM] | IC50 [6] [µM] | IC50 [7] [µM] | IC50 [8] [µM] | IC50 [9] [µM] | IC50 [10] [µM] | MIC, E. faecalis [11] [µM] | critical pressure of insertion, POPG [12] [mN/m] | MIC, A. niger [13] [µM] |
| --- | --- | --- | --- | --- | --- | --- | --- | --- | --- | --- | --- | --- | --- |
| CC[C@H](C)[C@H]1C(=O)O[C@H](C(C)C)C(=O)N(C)[C@@H]([C@@H](C)CC)C(=O)O[C@H](C(C)C)C(=O)N(C)[C@@H](C(C)C)C(=O)O[C@H](C(C)C)C(=O)N1C [ENN A1] | 50 (≈ 33.4 µg/mL) | >100 | 53.71 | >100 | >100 | 4.6 ± 0.9 | 2.7 ± 0.5 | 5.6 ± 1.1 | 6.4 ± 1.5 | 2.3 ± 0.1 | 6.25 (≈ 4.17 µg/mL) | 41.10 | >100 |
| CC[C@H](C)[C@H]1C(=O)O[C@H](C(C)C)C(=O)N(C)[C@@H]([C@@H](C)CC)C(=O)O[C@H](C(C)C)C(=O)N(C)[C@@H]([C@@H](C)CC)C(=O)O[C@H](C(C)C)C(=O)N1C [ENN A] | 25 (≈ 17 µg/mL) | >100 | 56.1 | >100 | >100 | 2.8 ± 0.6 | 1.1 ± 0.2 | 3 ± 0.7 | 5.7 ± 1.2 | 2 ± 0.1 | 3.12 (≈ 2.13 µg/mL) | 44.75 | >100 |
| CC[C@H](C)[C@H]1C(=O)O[C@H](C(C)C)C(=O)N(C)[C@@H](C(C)C)C(=O)O[C@H](C(C)C)C(=O)N(C)[C@@H](C(C)C)C(=O)O[C@H](C(C)C)C(=O)N1C [ENN B1] | 25 (≈ 16.3 µg/mL) | >100 | 43.62 | >100 | >100 | 7 ± 1.1 | 3.1 ± 0.5 | 5.6 ± 1.4 | 12.7 ± 2.8 | 3.3 ± 0.5 | 12.5 (≈ 8.17 µg/mL) | 41.71 | >100 |
| CC(C)[C@H]1C(=O)O[C@H](C(C)C)C(=O)N(C)[C@@H](C(C)C)C(=O)O[C@H](C(C)C)C(=O)N(C)[C@@H](C(C)C)C(=O)O[C@H](C(C)C)C(=O)N1C [ENN B] | >100 | >100 | 38.9 | >100 | >100 | 17.3 ± 3.3 | 4.6 ± 1.3 | 3.4 ± 0.7 | 43.7 ± 7.7 | 54.2 ± 35.3 | >100 | 34.67 | >100 |
